The values below come from ChEMBL document CHEMBL1147120, “Chemical constituents of malagasy Liverworts. 6. A myltaylane caffeate with nitric oxide inhibitory activity from Bazzania nitida” (J Nat Prod, 2007).

The IC50 is the midpoint of a concentration-inhibition curve. Read a low IC50 as greater potency.

For the assay, the system named is RAW. As to the kind of experiment: Inhibition of LPS-induced NO production in RAW 264.7 cells. It counts as functional, cell-based. To be noted: Mus musculus.

On to `C=C1C[C@]23C[C@H](OC(=O)/C=C/c4ccc(O)c(O)c4)[C@H]1[C@@]2(C)CCCC3(C)C`, for which the IC50 was found to be 6.3 µM.
